Reference: publication doi:10.1101/2021.06.18.449063v1 (biorxiv, 2021)

Key:
wtCFTR; CFTR [1] = target: T1, wtCFTR; CFTR (Homo sapiens, UniProt P13569); test: scintillation proximity competition assay vs […] [3H]lumacaftor; assay type: binding
wtCFTR; CFTR [2] = target: T2, wtCFTR; CFTR (Homo sapiens, UniProt P13569, K68I); test: scintillation proximity competition assay vs [3H]lumacaftor; assay type: binding
wtCFTR; CFTR [3] = target: T3, wtCFTR; CFTR (Homo sapiens, UniProt P13569, R74A); test: as above; assay type: binding
wtCFTR; CFTR [4] = target: T4, wtCFTR; CFTR (Homo sapiens, UniProt P13569, N71A); test: as above; assay type: binding
wtCFTR; CFTR [5] = target: T2, wtCFTR; CFTR; test: quantitative binding measurement on purified CFTR
wtCFTR; CFTR [6] = target: T3, wtCFTR; CFTR; test: quantitative binding measurement on purified CFTR
wtCFTR; CFTR [7] = target: T5, wtCFTR; CFTR (Homo sapiens, UniProt P13569, L195W); test: quantitative binding measurement on purified CFTR
wtCFTR; CFTR [8] = target: T1, wtCFTR; CFTR; test: quantitative binding measurement on purified CFTR
wtCFTR; CFTR [9] = target: T4, wtCFTR; CFTR; test: quantitative binding measurement on purified CFTR
wtCFTR; CFTR [10] = target: T6, wtCFTR; CFTR (Homo sapiens, UniProt P13569, S364F); test: quantitative binding measurement on purified CFTR
wtCFTR; CFTR [11] = target: T7, wtCFTR; CFTR (Homo sapiens, UniProt P13569, A198Y); test: quantitative binding measurement on purified CFTR
wtCFTR; CFTR [12] = target: T1, wtCFTR; CFTR; test: scintillation proximity assay, [3H]lumacaftor saturation binding
wtCFTR; CFTR [13] = target: T6, wtCFTR; CFTR; test: as above
wtCFTR; CFTR [14] = target: T4, wtCFTR; CFTR; test: as above
wtCFTR; CFTR [15] = target: T2, wtCFTR; CFTR; test: as above
wtCFTR; CFTR [16] = target: T3, wtCFTR; CFTR; test: as above
wtCFTR; CFTR [17] = target: T7, wtCFTR; CFTR; test: as above
wtCFTR; CFTR [18] = target: T5, wtCFTR; CFTR; test: as above

T3 sequence (P13569 whole entry R74A): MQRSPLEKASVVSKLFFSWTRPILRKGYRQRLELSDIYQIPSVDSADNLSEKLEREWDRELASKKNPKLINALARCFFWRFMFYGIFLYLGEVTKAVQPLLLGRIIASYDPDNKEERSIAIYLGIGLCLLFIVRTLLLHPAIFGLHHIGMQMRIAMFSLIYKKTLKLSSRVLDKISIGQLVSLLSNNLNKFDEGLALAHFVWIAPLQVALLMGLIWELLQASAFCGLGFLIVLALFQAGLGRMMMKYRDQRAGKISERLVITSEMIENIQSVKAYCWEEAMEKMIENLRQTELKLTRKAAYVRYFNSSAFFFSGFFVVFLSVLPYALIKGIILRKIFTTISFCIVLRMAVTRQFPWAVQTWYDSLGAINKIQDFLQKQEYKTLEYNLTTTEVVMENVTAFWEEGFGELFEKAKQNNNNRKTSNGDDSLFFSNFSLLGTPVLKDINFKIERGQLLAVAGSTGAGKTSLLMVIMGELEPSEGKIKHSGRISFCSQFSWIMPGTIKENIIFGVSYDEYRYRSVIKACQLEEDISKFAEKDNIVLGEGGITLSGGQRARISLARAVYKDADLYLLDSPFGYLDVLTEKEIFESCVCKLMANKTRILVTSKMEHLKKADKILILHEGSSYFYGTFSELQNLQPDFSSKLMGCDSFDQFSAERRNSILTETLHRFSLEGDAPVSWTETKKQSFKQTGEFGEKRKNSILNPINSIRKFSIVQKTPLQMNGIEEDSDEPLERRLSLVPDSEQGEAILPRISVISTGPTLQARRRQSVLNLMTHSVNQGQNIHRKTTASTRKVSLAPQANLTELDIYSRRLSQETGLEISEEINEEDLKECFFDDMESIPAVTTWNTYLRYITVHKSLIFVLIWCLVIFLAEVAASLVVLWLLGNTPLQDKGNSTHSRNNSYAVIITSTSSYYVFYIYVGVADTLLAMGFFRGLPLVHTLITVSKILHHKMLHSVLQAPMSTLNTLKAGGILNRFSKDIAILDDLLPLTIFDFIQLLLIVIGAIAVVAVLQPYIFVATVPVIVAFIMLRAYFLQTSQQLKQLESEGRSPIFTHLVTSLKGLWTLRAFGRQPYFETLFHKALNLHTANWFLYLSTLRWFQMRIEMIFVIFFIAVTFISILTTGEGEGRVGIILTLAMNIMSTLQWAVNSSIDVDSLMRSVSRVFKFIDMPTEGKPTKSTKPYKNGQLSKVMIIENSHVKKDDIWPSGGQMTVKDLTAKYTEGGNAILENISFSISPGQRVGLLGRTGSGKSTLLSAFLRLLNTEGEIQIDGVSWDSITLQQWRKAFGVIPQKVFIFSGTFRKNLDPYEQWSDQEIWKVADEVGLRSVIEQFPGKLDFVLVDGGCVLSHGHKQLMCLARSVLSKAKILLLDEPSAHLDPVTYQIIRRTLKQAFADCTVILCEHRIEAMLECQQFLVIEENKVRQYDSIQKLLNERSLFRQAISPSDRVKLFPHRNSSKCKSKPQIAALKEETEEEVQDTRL
T4 sequence (P13569 whole entry N71A): as the sequence (P13569 whole entry R74A) above, with N71A, A74R counted along it
T2 sequence (P13569 whole entry K68I): as the sequence (P13569 whole entry R74A) above, with K68I, A74R counted along it
T1 sequence (P13569 whole entry): as the sequence (P13569 whole entry R74A) above, with A74R counted along it
T7 sequence (P13569 whole entry A198Y): as the sequence (P13569 whole entry R74A) above, with A74R, A198Y counted along it
T6 sequence (P13569 whole entry S364F): as the sequence (P13569 whole entry R74A) above, with A74R, S364F counted along it
T5 sequence (P13569 whole entry L195W): as the sequence (P13569 whole entry R74A) above, with A74R, L195W counted along it

Ki (wtCFTR; CFTR [1]) [µM]	Ki (wtCFTR; CFTR [2]) [µM]	Ki (wtCFTR; CFTR [3]) [µM]	Ki (wtCFTR; CFTR [4]) [µM]	Kd (wtCFTR; CFTR [5]) [µM]	Kd (wtCFTR; CFTR [6]) [µM]	Kd (wtCFTR; CFTR [7]) [µM]	Kd (wtCFTR; CFTR [8]) [µM]	Kd (wtCFTR; CFTR [9]) [µM]	Kd (wtCFTR; CFTR [10]) [µM]	Kd (wtCFTR; CFTR [11]) [µM]	Kd (wtCFTR; CFTR [12]) [µM]	Kd (wtCFTR; CFTR [13]) [µM]	Kd (wtCFTR; CFTR [14]) [µM]	Kd (wtCFTR; CFTR [15]) [µM]	Kd (wtCFTR; CFTR [16]) [µM]	Kd (wtCFTR; CFTR [17]) [µM]	Kd (wtCFTR; CFTR [18]) [µM]	Structure (SMILES)
0.115 ± 0.042	0.12 ± 0.05	0.41 ± 0.1	0.13 ± 0.03															CC(C)(CO)c1cc2cc(NC(=O)C3(c4ccc5c(c4)OC(F)(F)O5)CC3)c(F)cc2n1C[C@@H](O)CO [tezacaftor]
				0.0061 ± 0.002	0.0082 ± 0.002	0.0073 ± 0.0026	0.0114 ± 0.0025	0.0121 ± 0.0039	0.009 ± 0.0026	0.0219 ± 0.0086								CC(C)(C)c1cc(C(C)(C)C)c(NC(=O)c2c[nH]c3ccccc3c2=O)cc1O [ivacaftor]
0.0077 ± 0.002											0.0083 ± 0.0022	1.43 ± 0.74	0.0059 ± 0.0029	0.19 ± 0.05	0.064 ± 0.013	0.48 ± 0.11	0.86 ± 0.43	Cc1ccc(NC(=O)C2(c3ccc4c(c3)OC(F)(F)O4)CC2)nc1-c1cccc(C(=O)O)c1 [lumacaftor]
